According to ChEMBL document CHEMBL1126000, “Synthesis of 2-substituted-1,3,4-thiadiazole-5-sulphonamides as novel water-soluble inhibitors of carbonic anhydrase” (Bioorg Med Chem Lett, 1991):
In brackets after ≈: the same amount, converted by molar mass. Several values for one entry are separate records, joined by “and”; a condition that tells them apart may be missing. Equal entries are not always repeated.

How the values were obtained:
Carbonic anhydrase = Carbonic anhydrase (Bos taurus, UniProt P00921+Q95323+P18915+Q3SZX4)
Description: In vitro concentration that causes 50% inhibition of carbonic anhydrase carbonate hydro-lyase (EC.4.2.1.1) isolated from bovine erythrocyte

[1] = Solubility in water, at 20 degrees Centigrade.; format: physicochemical

Compound	IC50 (Carbonic anhydrase)	solubility ([1]; water, read-out: Solubility)	solubility ([1]; buffer)
C[C@H](NC(=O)OCc1ccccc1)C(=O)Nc1nnc(S(N)(=O)=O)s1	7 nM	< 0.1 mM	–
CC(C)COC(=O)Nc1nnc(S(N)(=O)=O)s1	550 nM and 570 nM	103 mM (≈ 28900 µg/mL)	–
NS(=O)(=O)c1nnc(NC(=O)[C@H](Cc2ccccc2)NC(=O)OCc2ccccc2)s1	5 nM	< 0.1 mM	–
Br.N[C@@H](Cc1ccccc1)C(=O)Nc1nnc(S(N)(=O)=O)s1	30 nM	132 mM	–
Br.C[C@H](N)C(=O)Nc1nnc(S(N)(=O)=O)s1	9 nM	701 mM	–

Results, then the compound that gave them:

IC50 (Carbonic anhydrase)	solubility ([1]; water, read-out: Solubility)	solubility ([1]; buffer)	Compound
–	896 mM	–	Br.NCC(=O)Nc1nnc(S(N)(=O)=O)s1
8 nM	< 0.1 mM	–	NS(=O)(=O)c1nnc(NC(=O)CNC(=O)OCc2ccccc2)s1
440 nM and 370 nM	–	0.7 mM (≈ 196 µg/mL)	NCCCCC(=O)Nc1nnc(S(N)(=O)=O)s1
–	< 0.1 mM	–	CC(=O)Nc1nnc(S(N)(=O)=O)s1 [ACETAZOLAMIDE]
